For the experiment, the system named is Cercospora arachidicola. Kind of experiment: Peanut field trial, in-furrow soil application at planting, leafspot disease severity. It is filed as in vivo, Cercospora arachidicola on peanut (Arachis hypogaea). The following applies: 63 days after planting, peanut Ga 09b, COMPOUND 1 SC450 200 g AI/ha, Fluopyram SC500 250 g AI/ha. On the procedure: A peanut field trial was carried out in […], Georgia, USA, to evaluate the efficacy of different compounds against the leafspot disease Cercospora arachidicola. Plot borders (peanuts) were planted in early May and left untreated until there was significant leafspot infection on the borders.
The peanuts were then planted in July and treatments applied in-furrow at the same day. The disease occurred mid of September and an assessment on disease severity (% infected area) was done 63 days after planting.
Pest Severity, 63 Days after Planting

In the case of `O=C(NCCc1ncc(C(F)(F)F)cc1Cl)c1ccccc1C(F)(F)F` [Fluopyram], the “% efficacy based on pest severity” value was 52.64%. Also, the “% efficacy based on pest severity” value (listed as commercial standard compound 2) was 53%. Moreover, the “Pest severity (%)” value (% infected area) is recorded as 15,A %.

For the origin of these results see patent publication US20230045196A1, “METHODS OF CONTROLLING OR PREVENTING INFESTATION OF PEANUT PLANTS BY PHYTOPATHOGENIC MICROORGANISMS” (SYNGENTA CROP PROTECTION AG, priority 2019, published 2023).
